# Experimental data as given in US10517889B2, “Modulators of SMAD7 expression” (Ionis Pharmaceuticals, Inc., priority 2017, dated 2019).
# Strand notation (5' to 3'): a small letter for the sugar, then the base; units joined by * are phosphorothioate-linked, units joined directly phosphodiester-linked; [ ] holds rarer units or linkages, { } end groups; capitals alone tell only the bases. k = constrained ethyl (cEt); [5mC] = 5-methylcytosine; d = 2'-deoxy (DNA)
# System: human SMAD7 mRNA
# Assay: Antisense inhibition of human SMAD7 mRNA expression in Hep3B cells by 3-10-3 cEt gapmers, 10,000 nM, electroporation (Example 2)
# Format: cell-based
# Conditions: Hep3B cells, 10,000 nM antisense oligonucleotide, electroporation, approximately 24 hours, RT-PCR primer probe set RTS5062, relative to untreated control cells
# Description: Antisense oligonucleotides were designed to target human SMAD7 mRNA and were tested for their effects on SMAD7 mRNA expression in vitro. The antisense oligonucleotides were tested in a series of experiments that had similar culture conditions, as described below. ION 771576, described in the studies above and which is a 5-10-5 MOE gapmer, was also included in these assays. Cultured Hep3B cells at a density of 20,000 cells per well were transfected using electroporation with 10,000 nM antisense oligonucleotide. After a treatment period of approximately 24 hours, RNA was isolated from the cells and SMAD7 mRNA levels were measured by quantitative real-time PCR. Primer probe set RTS5062 was used to measure human SMAD7 mRNA levels. SMAD7 mRNA levels were adjusted according to total RNA content, as measured by RIBOGREEN®. Results are presented as percent inhibition of SMAD7 mRNA expression, relative to untreated control cells.
# The newly designed chimeric antisense oligonucleotides in the Tables below were designed as 3-10-3 cEt gapmers. The gapmers are 16 nucleosides in length, wherein the central gap segment comprises often 2′-deoxynucleosides and is flanked by wing segments on the 5′ direction and the 3′ direction comprising three nucleosides each. Each nucleoside in the 5′ wing segment and each nucleoside in the 3′ wing segment has a cEt sugar modification. The internucleoside linkages throughout each gapmer are phosphorothioate (P═S) linkages. All cytosine residues throughout each gapmer are 5-methylcytosines.
# “Start site” indicates the 5′-most nucleoside to which the gapmer is targeted in the human gene sequence. “Stop site” indicates the 3′-most nucleoside to which the gapmer is targeted human gene sequence. […] Some of the oligonucleotides presented were complementary to SMAD7 mRNA sequences RefSeqNo. NM_001190821.1 (designated herein as SEQ ID NO: 3) or RefSeqNo. NM_001190822.1 (designated herein as SEQ ID NO: 4), and are presented in a separate table shown below.
row,Substance,% Inhibition
1,790507 (kA*kA*kG*dA*dA*dG*dT*dT*dG*dG*dG*dA*dA*kT*k[5mC]*kT; antisense) [compound 790507],0%

# Same assay, conditions: Hep3B cells, electroporation with 10,000 nM antisense oligonucleotide, approximately 24 hours, SMAD7 mRNA by RT-PCR (RTS5062), relative to untreated control cells
row,Substance,% Inhibition
1,772889 (k[5mC]*kT*k[5mC]*d[5mC]*dA*dT*dT*d[5mC]*dA*dT*dA*dA*dT*kA*kT*kT; antisense) [compound 772889],7%
2,790458 (k[5mC]*kG*k[5mC]*d[5mC]*dA*dG*dT*d[5mC]*dT*d[5mC]*d[5mC]*d[5mC]*dG*kG*kA*kG; antisense) [compound 790458],0%
3,790460 (kA*kG*kG*dA*dG*d[5mC]*dG*dG*d[5mC]*dG*dG*d[5mC]*dG*kG*k[5mC]*k[5mC]; antisense) [compound 790460],58%
4,790464 (kA*kG*k[5mC]*dG*dA*dA*d[5mC]*dA*dT*dG*dA*d[5mC]*d[5mC]*kT*k[5mC]*k[5mC]; antisense) [compound 790464],58%
5,790465 (kA*kA*kG*dG*dA*dG*d[5mC]*dG*dA*dA*d[5mC]*dA*dT*kG*kA*k[5mC]; antisense) [compound 790465],54%
6,790479 (kG*kG*k[5mC]*dA*dG*d[5mC]*dA*dG*dG*dA*dG*dG*d[5mC]*kA*k[5mC]*kG; antisense) [compound 790479],43%
7,790485 (k[5mC]*kA*k[5mC]*d[5mC]*dT*dG*dA*dA*d[5mC]*dA*d[5mC]*dT*dT*kT*kG*k[5mC]; antisense) [compound 790485],26%
8,790492 (kT*k[5mC]*k[5mC]*d[5mC]*dG*dT*dA*dA*dG*dA*dT*dT*d[5mC]*kA*k[5mC]*kA; antisense) [compound 790492],38%
9,790493 (kG*kT*kT*dG*dA*dT*d[5mC]*dT*dT*d[5mC]*d[5mC]*d[5mC]*dG*kT*kA*kA; antisense) [compound 790493],0%
10,790496 (kG*k[5mC]*kA*dG*dA*dG*dT*d[5mC]*dG*dG*d[5mC]*dT*dA*kA*kG*kG; antisense) [compound 790496],42%
11,790497 (kG*kT*kT*d[5mC]*dG*d[5mC]*dA*dG*dA*dG*dT*d[5mC]*dG*kG*k[5mC]*kT; antisense) [compound 790497],23%

# Same assay, conditions: Hep3B cells, electroporation with 10,000 nM antisense oligonucleotide, approximately 24 hours, primer probe set RTS5062, relative to untreated control cells
Substance,% Inhibition,% inhibition of SMAD7 mRNA expression
772702 (k[5mC]*kG*kT*d[5mC]*dT*dT*dT*dA*dT*dA*dT*dT*dT*kA*k[5mC]*kA; antisense) [compound 772702],23%,
772708 (kA*kA*kA*dG*dT*dG*d[5mC]*dA*dT*d[5mC]*dT*dT*dT*kT*k[5mC]*kT; antisense) [compound 772708],,0%
772709 (kT*kA*kA*dA*dG*d[5mC]*dA*dA*dA*dG*dT*dG*d[5mC]*kA*kT*k[5mC]; antisense) [compound 772709],,0%
772712 (kA*k[5mC]*k[5mC]*d[5mC]*dA*dT*dA*dG*dA*dA*dA*dA*dA*kA*kA*k[5mC]; antisense) [compound 772712],,0%
772717 (kA*k[5mC]*kT*d[5mC]*d[5mC]*dT*dT*dT*dA*dG*dA*dA*dA*kA*kA*k[5mC]; antisense) [compound 772717],,28%
790461 (k[5mC]*k[5mC]*kG*dG*dG*d[5mC]*dA*dG*dG*dA*dG*d[5mC]*dG*kG*k[5mC]*kG; antisense) [compound 790461],,42%
790462 (kG*k[5mC]*kG*d[5mC]*dA*dG*dG*d[5mC]*dG*dA*d[5mC]*dA*dG*k[5mC]*kA*kG; antisense) [compound 790462],,43%
790468 (kG*k[5mC]*kG*dA*dG*dG*dA*dG*dA*dA*dA*dA*dG*kT*k[5mC]*kG; antisense) [compound 790468],,0%
790489 (k[5mC]*kT*k[5mC]*dT*dT*dG*dA*d[5mC]*dT*dT*d[5mC]*d[5mC]*dG*kA*kG*kG; antisense) [compound 790489],,0%

# Same assay, conditions: Hep3B cells, electroporation, 10,000 nM antisense oligonucleotide, approximately 24 hours, RTS5062, relative to untreated control cells
row,Substance,% inhibition of SMAD7 mRNA expression
1,772786 (kG*kA*k[5mC]*d[5mC]*dA*d[5mC]*dA*dG*d[5mC]*dA*d[5mC]*d[5mC]*dT*kT*kG*kT; antisense) [compound 772786],19%
2,772801 (kG*kA*k[5mC]*dA*dA*dA*d[5mC]*d[5mC]*dT*dT*d[5mC]*d[5mC]*dG*kA*kA*kA; antisense) [compound 772801],34%
3,772813 (kA*kA*kG*dG*dG*d[5mC]*dG*d[5mC]*dA*dG*dG*dA*dA*kA*kG*kG; antisense) [compound 772813],43%

# Same assay, conditions: SMAD7 mRNA, Hep3B cells, 10,000 nM antisense oligonucleotide, electroporation, approximately 24 hours, primer probe set RTS5062, relative to untreated control cells
row,Substance,% Inhibition
1,772711 (kA*kA*kA*d[5mC]*dA*d[5mC]*d[5mC]*dA*dA*dT*d[5mC]*dT*dT*kG*kT*kG; antisense) [compound 772711],0%
2,772713 (kA*kT*kA*dA*d[5mC]*dA*d[5mC]*d[5mC]*d[5mC]*dA*dT*dA*dG*kA*kA*kA; antisense) [compound 772713],24%
3,772714 (kA*kG*kG*dT*dG*dA*dT*dA*dA*d[5mC]*dA*d[5mC]*d[5mC]*k[5mC]*kA*kT; antisense) [compound 772714],0%
4,772715 (kA*kG*k[5mC]*dT*dA*dG*dG*dT*dG*dA*dT*dA*dA*k[5mC]*kA*k[5mC]; antisense) [compound 772715],0%
5,772733 (kG*kG*kT*dG*dA*dT*dT*dG*d[5mC]*d[5mC]*dT*dT*dG*kA*kT*kA; antisense) [compound 772733],39%
6,772734 (kA*kG*kG*d[5mC]*dA*dG*dG*dG*d[5mC]*d[5mC]*dG*d[5mC]*dG*kA*kG*kG; antisense) [compound 772734],16%
7,772735 (kA*kA*k[5mC]*dT*dG*dT*dT*dT*dG*dT*d[5mC]*dT*dT*kA*kG*k[5mC]; antisense) [compound 772735],52%
8,772738 (kA*k[5mC]*k[5mC]*dA*dG*dT*dT*dG*dG*dT*dT*dT*dG*kA*kG*kA; antisense) [compound 772738],16%
9,772739 (kT*kA*k[5mC]*dT*d[5mC]*dA*d[5mC]*d[5mC]*dA*dG*dT*dT*dG*kG*kT*kT; antisense) [compound 772739],0%
10,772762 (kA*kT*kT*dT*dT*dG*d[5mC]*dT*dA*d[5mC]*d[5mC]*dT*dA*kA*kT*kG; antisense) [compound 772762],11%
11,772765 (kG*kA*kT*dT*dG*dG*d[5mC]*dA*dG*dG*dT*dT*dA*kA*kT*k[5mC]; antisense) [compound 772765],35%
12,772808 (k[5mC]*k[5mC]*k[5mC]*d[5mC]*dA*dT*dT*d[5mC]*dA*dT*dT*dA*dA*kG*k[5mC]*k[5mC]; antisense) [compound 772808],34%
13,772809 (k[5mC]*k[5mC]*kT*dA*dA*dA*d[5mC]*dT*dG*dA*dG*d[5mC]*d[5mC]*k[5mC]*k[5mC]*kA; antisense) [compound 772809],48%
14,772929 (k[5mC]*kG*kG*dA*dA*dG*dT*d[5mC]*dT*dT*dG*dT*dA*kT*kT*kT; antisense) [compound 772929],37%
15,790463 (kA*kT*kG*dA*dA*dG*dA*dA*dG*dT*d[5mC]*dG*dG*kG*k[5mC]*kG; antisense) [compound 790463],53%
16,790469 (k[5mC]*kG*kG*dA*d[5mC]*dG*dA*dG*d[5mC]*dG*d[5mC]*dA*dG*kA*kT*k[5mC]; antisense) [compound 790469],41%
17,790471 (k[5mC]*kG*k[5mC]*d[5mC]*dG*dG*dG*d[5mC]*dG*d[5mC]*dA*d[5mC]*dG*kG*k[5mC]*kT; antisense) [compound 790471],4%
18,790484 (kG*kA*kA*d[5mC]*dA*d[5mC]*dT*dT*dT*dG*d[5mC]*dA*d[5mC]*kA*kG*k[5mC]; antisense) [compound 790484],62%
19,790486 (kT*kG*k[5mC]*d[5mC]*dT*dG*dA*dG*dA*dT*d[5mC]*d[5mC]*dG*kG*k[5mC]*k[5mC]; antisense) [compound 790486],23%
20,790491 (kG*kT*kA*dA*dG*dA*dT*dT*d[5mC]*dA*d[5mC]*dA*dG*k[5mC]*kA*kA; antisense) [compound 790491],56%
21,790498 (k[5mC]*kT*k[5mC]*dT*dA*dG*dT*dT*d[5mC]*dG*d[5mC]*dA*dG*kA*kG*kT; antisense) [compound 790498],11%
